Format in all cases: functional, Homo sapiens
Test [1] deals with U2OS. The experiment in a line: (§1) Here: values are normalized to the negative (DMSO; defined as 0% autophagy induction) and positive (250nM Torin1; mTOR inhibitor; defined as maximal inducer of autophagy = 100%) control compounds and represented as % of autophagy induction. […] The impact of autophagy induction on cells is complex and depends on the affected target. As such, the magnitude of a phenotype may not be equally mirrored in the %-value of autophagy induction and vice versa. The dynamics of the induction may indicate the mode of activation: e.g. activation via phosphorylation or a signaling cascade may occur fast, while activation via transcription factors may take considerably longer. […] Of note, treatment concentrations may be sub-optimal for specific compounds, leading to false negative annotations. Particulars: Culturing Media DMEM, 1 % Penicillin/Streptomycin, 10% Fetal bovin serum Add-On: No, Screening Media Control DMEM, Screening Media Samples DMEM.

The test system of test [2] is U2OS. The test is described as §1. Particulars: Culturing Media DMEM, 1 % Penicillin/Streptomycin, 10% Fetal bovin serum Add-On: No, Screening Media Control DMEM, Screening Media Samples DMEM. The source holds these as a separate data set.
In test [3] the test system is TERT-RPE1. The description is as §1. Particulars: Compound Concentration 1 uM, Culturing Media DMEM/F12 (1:1), 1 % Penicillin/Streptomycin, 10% Fetal bovin serum Add-On: No, Screening Media Control DMEM/F12 (1:1), Screening Media Samples DMEM/F12 (1:1).
Setting [4] is: Compound Concentration 0.5 uM, Timepoint 12 hours.
Setting [5] is: Compound Concentration 0.5 uM, Timepoint 24 hours.
[6] abbreviates: Compound Concentration 0.5 uM, Timepoint 36 hours.
The mark [7] stands for this setting: Compound Concentration 0.5 uM, Timepoint 60 hours.
Setting [8] is: Compound Concentration 2 uM, Timepoint 12 hours.
Where [9] appears, read: Compound Concentration 2 uM, Timepoint 24 hours.
Where [10] appears, read: Compound Concentration 2 uM, Timepoint 36 hours.
Setting [11] is: Compound Concentration 2 uM, Timepoint 60 hours.
[12] abbreviates: Compound Concentration 10 uM, Timepoint 12 hours.
Where [13] appears, read: Compound Concentration 10 uM, Timepoint 24 hours.
The mark [14] stands for this setting: Compound Concentration 10 uM, Timepoint 36 hours.
[15] abbreviates: Compound Concentration 10 uM, Timepoint 60 hours.

These results are taken from ChEMBL document CHEMBL5724696, “Autophagy assay results for EUbOPEN Chemogenomics Library” (2024).

Consider `Cl.Cl.Cl.c1ccc(N2CCN(Cc3nc4ccccc4[nH]3)CC2)nc1`, for which the autophagy induction in test [1] (setting [4]) is -5.698%; in test [1] (setting [5]), -1.19%; in test [1] (setting [6]), -1.541%; in test [1] (setting [7]), -2680.35%; in test [1] (setting [8]), -2.768%; in test [1] (setting [9]), -5.039%. Moreover, the autophagy induction in test [1] (setting [10]) is given as -4.313%; in test [1] (setting [11]) it was -2193.41%; in test [1] (setting [12]), 1.805%; in test [1] (setting [13]), -0.2364%; in test [1] (setting [14]) it was -2.475%; in test [1] (setting [15]), 114.324%. The autophagy induction in test [2] (setting [4]) is listed as 6.453%; in test [2] (setting [5]), 3.88%; in test [2] (setting [6]), 1.316%; in test [2] (setting [7]), -5.738%; in test [2] (setting [8]), 16.1665%; in test [2] (setting [9]), 12.3628%. Also, the autophagy induction was 4.3069% in test [2] (setting [10]); -1.986% in test [2] (setting [11]); 1.702% in test [2] (setting [12]); -2.316% in test [2] (setting [13]); -1.149% in test [2] (setting [14]); 1.595% in test [2] (setting [15]).

For the molecule `Cc1csc2c(N[C@@H](C)CN3CCN(S(=O)(=O)c4ccc(Cl)c(Cl)c4)CC3)ncnc12`, the autophagy induction in test [1] (setting [4]) is listed as -0.007707%; in test [1] (setting [5]) it was -1.5%; in test [1] (setting [6]) it was -0.4844%; in test [1] (setting [7]) it was -654.702%; in test [1] (setting [8]), 4.101%; in test [1] (setting [9]) it was 0.5386%. Further, the autophagy induction in test [1] (setting [10]) is -0.3647%; in test [1] (setting [11]), 114.139%; in test [1] (setting [12]), -10.3141%; in test [1] (setting [13]) it was -6.4207%; in test [1] (setting [14]), -4.537%; in test [1] (setting [15]), 114.595%. The autophagy induction was 6.768% in test [2] (setting [4]); 8.8628% in test [2] (setting [5]); 13.6009% in test [2] (setting [6]); 4.711% in test [2] (setting [7]); 2.53% in test [2] (setting [8]); 6.7674% in test [2] (setting [9]). For the same molecule, the autophagy induction in test [2] (setting [10]) is given as 12.0314%; in test [2] (setting [11]) it was 11.989%; in test [2] (setting [12]) it was 12.5309%; in test [2] (setting [13]) it was 16.4077%; in test [2] (setting [14]) it was 26.9308%; in test [2] (setting [15]), 28.2658%.

Regarding `CC(C)Oc1ccccc1C(=O)Nc1ccccc1C(=O)Nc1cccc(S(=O)(=O)C(F)(F)F)c1`, the autophagy induction is 3.012% in test [1] (setting [4]); -1.737% in test [1] (setting [5]); -1.42% in test [1] (setting [6]); 114.268% in test [1] (setting [7]); 8.776% in test [1] (setting [8]); 3.511% in test [1] (setting [9]). Moreover, the autophagy induction in test [1] (setting [10]) is recorded as 2.272%; in test [1] (setting [11]), 113.873%; in test [1] (setting [12]) it was -16.0939%; in test [1] (setting [13]), -18.3481%; in test [1] (setting [14]), -11.2669%; in test [1] (setting [15]), 115.068%. Moreover, the autophagy induction in test [2] (setting [4]) is given as -12.7089%; in test [2] (setting [5]), -12.2172%; in test [2] (setting [6]), -12.6004%; in test [2] (setting [7]), -17.6606%; in test [2] (setting [8]), 2.367%; in test [2] (setting [9]), 0.4504%. For the same molecule, the autophagy induction in test [2] (setting [10]) is given as -2.457%; in test [2] (setting [11]) it was -5.945%; in test [2] (setting [12]), 11.8819%; in test [2] (setting [13]) it was 14.0193%; in test [2] (setting [14]), 13.5851%; in test [2] (setting [15]), 17.9189%.

As for `CCc1ccc(OCc2ccccc2C(=O)Nc2ccc3nc(C)cc(N)c3c2)cc1.Cl`, the autophagy induction is 12.0081% in test [1] (setting [4]); 1.625% in test [1] (setting [5]); -0.1664% in test [1] (setting [6]); 114.695% in test [1] (setting [7]); -46.9081% in test [1] (setting [8]); -13.0517% in test [1] (setting [9]). In addition, the autophagy induction in test [1] (setting [10]) worked out at 3.022%; in test [1] (setting [11]), 113.026%; in test [1] (setting [12]), 98.6173%; in test [1] (setting [13]), 63.101%; in test [1] (setting [14]), 54.8449%; in test [1] (setting [15]), 109.07%. Also, the autophagy induction was found to be 21.0143% in test [2] (setting [4]); 14.8244% in test [2] (setting [5]); 13.2935% in test [2] (setting [6]); 10.1945% in test [2] (setting [7]); 66.4638% in test [2] (setting [8]); 63.0279% in test [2] (setting [9]). Moreover, the autophagy induction is given as 63.192% in test [2] (setting [10]); 56.3816% in test [2] (setting [11]); 203.914% in test [2] (setting [12]); 166.946% in test [2] (setting [13]); 154.332% in test [2] (setting [14]); 150.102% in test [2] (setting [15]).

For the molecule `CCO[C@@H](Cc1ccc(OCCc2ccc(OS(C)(=O)=O)cc2)cc1)C(=O)O` [TESAGLITAZAR], the autophagy induction in test [3] (Timepoint 12 hours) is on record as -2.81%; in test [3] (Timepoint 24 hours) it was -1.872%; in test [3] (Timepoint 36 hours) it was 4.96%; in test [3] (Timepoint 60 hours), 2.851%.

Consider `O=C(O)Cc1cc(I)c(Oc2ccc(O)c(I)c2)c(I)c1` [TIRATRICOL], for which the autophagy induction in test [3] (Timepoint 12 hours) is -9.01%; in test [3] (Timepoint 24 hours), -9.767%; in test [3] (Timepoint 36 hours), -3.577%; in test [3] (Timepoint 60 hours), 11.3725%.

Regarding `O=C(O)c1cc(F)c2nc(N3[C@@H]4CC[C@H]3C[C@@H](OCc3c(-c5ccccc5OC(F)(F)F)noc3C3CC3)C4)sc2c1` [TROPIFEXOR], the autophagy induction is on record as -16.0144% in test [3] (Timepoint 12 hours), -6.889% in test [3] (Timepoint 24 hours), 7.971% in test [3] (Timepoint 36 hours) and -23.0565% in test [3] (Timepoint 60 hours).

As to `CC(C)OC(=O)C1=CN(C(=O)c2ccc(F)c(F)c2)CC(C)(C)c2c1[nH]c1ccccc21` [TUROFEXORATE ISOPROPYL], the autophagy induction is recorded as -4.447% in test [3] (Timepoint 12 hours), -6.097% in test [3] (Timepoint 24 hours), -6.537% in test [3] (Timepoint 36 hours) and 2.1006% in test [3] (Timepoint 60 hours).
